Measured values: patent publication US9302999B2, “Substituted triazoles as herbicides” (E. I. DU PONT DE NEMOURS AND COMPANY, priority 2012, dated 2016)

What was measured:
Assay type in all cases: in vivo
[1] = system: sedge, umbrella (small-flower umbrella sedge Cyperus difformis); assay: Test B flooded paddy: sedge, umbrella; conditions: Flood; 250 g ai/ha; applied to paddy water at 2-leaf stage; visually evaluated after 13 to 15 days
How it was run: (§1)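 Greenhouse assay lasting 13 to 15 days. Treatment was into water flooding pots 3 cm deep, at the 2-leaf stage, with that level sustained afterwards. Scores compare treated with control plants visually, 100 denoting complete control and 0 no effect; a dash marks no test result.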

[2] = system: ducksalad (Heteranthera limosa); assay: Test B flooded paddy: ducksalad; conditions: Flood; 250 g ai/ha; applied to paddy water at 2-leaf stage; visually evaluated after 13 to 15 days
How it was run: as §1

[3] = system: foxtail, green (green foxtail, Setaria viridis); assay: Test C pre-/postemergence: foxtail, green
How it was run: (§2)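 Visual injury scored 0–100 (100 = complete control) against untreated controls after 13–15 greenhouse days. Surfactant-containing solvent formulations applied either to soil after sowing (loam/sand) or over 1- to 4-leaf plants, 2–18 cm tall.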

[4] = system: woolly cupgrass (Eriochloa villosa); assay: Test C pre-/postemergence: woolly cupgrass
How it was run: as §2

[5] = system: blackgrass (Alopecurus myosuroides); assay: Test D pre-/postemergence: blackgrass
How it was run: (§3)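 Applied as a non-phytotoxic solvent formulation with surfactant, compounds were tested preemergence in silt loam and postemergence on seedlings 2 to 18 cm high in peat-vermiculite medium. Evaluation was visual, 0 meaning no effect and 100 complete control, at 14 to 21 days.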

[6] = system: field poppy (Papaver rhoeas); assay: Test D pre-/postemergence: field poppy
How it was run: as §3

[7] = system: deadnettle (henbit deadnettle, Lamium amplexicaule); assay: Test D pre-/postemergence: deadnettle
How it was run: as §3

[8] = system: Russian thistle (Salsola iberica); assay: Test D pre-/postemergence: Russian thistle
How it was run: as §3

[9] = system: barley, spring (spring barley, Hordeum vulgare); assay: Test D pre-/postemergence: barley, spring
How it was run: as §3

[10] = Postemergence, 31 g ai/ha, scale 0 to 100 (0 no effect, 100 complete control)
[11] = Postemergence, 62 g ai/ha, scale 0 to 100 (0 no effect, 100 complete control)
[12] = Postemergence, 125 g ai/ha, scale 0 to 100, 0 no effect, 100 complete control
[13] = Postemergence, 250 g ai/ha, scale 0 to 100 (0 no effect, 100 complete control)
[14] = Preemergence, 31 g ai/ha, scale 0 (no effect) to 100 (complete control)
[15] = Preemergence, 62 g ai/ha, scale of 0 to 100, 0 is no effect, 100 is complete control
[16] = Preemergence, 125 g ai/ha, scale 0 to 100, 0 no effect, 100 complete control
[17] = Preemergence, 250 g ai/ha, scale 0 to 100, 0 no effect, 100 complete control
[18] = Postemergence, 16 g ai/ha, scale 0 to 100
[19] = Preemergence, 16 g ai/ha, scale 0 to 100 (0 no effect, 100 complete control)
[20] = Preemergence, 31 g ai/ha, scale 0 to 100 (0 no effect, 100 complete control)
[21] = Preemergence, 62 g ai/ha, scale 0 to 100
[22] = Preemergence, 125 g ai/ha, scale 0 to 100
[23] = Preemergence, 250 g ai/ha, scale 0 to 100
[24] = Preemergence, 31 g ai/ha, scale of 0 to 100, 0 is no effect, 100 is complete control

CCOc1nn(-c2ccc(F)cc2)nc1Cc1ccnc(C(F)F)c1 [Compound 195]
Plant response rating, Sedge, Umbrella (0 to 100 scale, 0 is no effect, 100 is complete control) [1]: 100 | Plant response rating, Ducksalad (0 to 100 scale, 0 is no effect, 100 is complete control) [2]: 100 | Plant response rating, Foxtail, Green [3, 10]: 100 | Plant response rating, Foxtail, Green [3, 11]: 100 | Plant response rating, Foxtail, Green [3, 12]: 100 | Plant response rating, Foxtail, Green [3, 13]: 100 | Plant response rating, Foxtail, Green [3, 14]: 90 | Plant response rating, Foxtail, Green [3, 15]: 90 | Plant response rating, Foxtail, Green [3, 16]: 90 | Plant response rating, Foxtail, Green [3, 17]: 90 | Plant response rating, Cupgrass, Woolly [4, 10]: 50 | Plant response rating, Cupgrass, Woolly [4, 11]: 65 | Plant response rating, Cupgrass, Woolly [4, 12]: 75 | Plant response rating, Cupgrass, Woolly ([4]; Postemergence, 250 g ai/ha, scale 0 to 100): 75 | Plant response rating, Cupgrass, Woolly [4, 14]: 20 | Plant response rating, Cupgrass, Woolly [4, 15]: 95 | Plant response rating, Cupgrass, Woolly [4, 16]: 95 | Plant response rating, Cupgrass, Woolly [4, 17]: 98 | Plant response rating: Blackgrass [5, 10]: 25 | Plant response rating: Blackgrass [5, 11]: 35 | Plant response rating: Blackgrass [5, 12]: 50 | Plant response rating: Blackgrass [5, 13]: 70 | Plant response rating, Blackgrass [5, 18]: 20 | Plant response rating, Blackgrass [5, 19]: 0 | Plant response rating, Blackgrass [5, 20]: 70 | Plant response rating, Blackgrass [5, 21]: 75 | Plant response rating, Blackgrass [5, 22]: 80 | Plant response rating, Blackgrass [5, 23]: 100 | Plant response rating: Field Poppy [6, 10]: 75 | Plant response rating: Field Poppy [6, 11]: 95 | Plant response rating: Field Poppy [6, 12]: 100 | Plant response rating: Field Poppy [6, 13]: 100 | Plant response rating, Field Poppy [6, 18]: 35 | Plant response rating, Field Poppy [6, 19]: 30 | Plant response rating, Field Poppy [6, 20]: 40 | Plant response rating, Field Poppy [6, 21]: 60 | Plant response rating, Field Poppy [6, 22]: 100 | Plant response rating, Field Poppy [6, 23]: 100 | Plant response rating: Deadnettle [7, 10]: 65 | Plant response rating: Deadnettle [7, 11]: 75 | Plant response rating: Deadnettle [7, 12]: 75 | Plant response rating: Deadnettle [7, 13]: 90 | Plant response rating, Deadnettle [7, 18]: 60 | Plant response rating, Deadnettle [7, 19]: 60 | Plant response rating, Deadnettle [7, 20]: 60 | Plant response rating, Deadnettle [7, 21]: 60 | Plant response rating, Deadnettle [7, 22]: 100 | Plant response rating, Deadnettle [7, 23]: 100 | Plant response rating: Russian Thistle [8, 10]: 40 | Plant response rating: Russian Thistle [8, 11]: 80 | Plant response rating: Russian Thistle [8, 12]: 85 | Plant response rating: Russian Thistle [8, 13]: 100 | Plant response rating, Russian Thistle [8, 18]: 15 | Plant response rating, Russian Thistle [8, 19]: 0 | Plant response rating, Russian Thistle [8, 20]: 0 | Plant response rating, Russian Thistle [8, 21]: 0 | Plant response rating, Russian Thistle [8, 22]: 0 | Plant response rating, Russian Thistle [8, 23]: 30 | Plant response rating: Barley, Spring [9, 10]: 15 | Plant response rating: Barley, Spring [9, 11]: 20 | Plant response rating: Barley, Spring [9, 12]: 30 | Plant response rating: Barley, Spring [9, 13]: 40 | Plant response rating, Barley, Spring [9, 18]: 10 | Plant response rating, Barley, Spring [9, 19]: 0 | Plant response rating, Barley, Spring [9, 20]: 0 | Plant response rating, Barley, Spring [9, 21]: 0 | Plant response rating, Barley, Spring [9, 22]: 0 | Plant response rating, Barley, Spring [9, 23]: 30

Cc1nn(-c2ccc(F)c(C(F)(F)F)c2)nc1Oc1ccnc(C(F)(F)F)c1 [Compound 147]
Plant response rating, Sedge, Umbrella (0 to 100 scale, 0 is no effect, 100 is complete control) [1]: 80 | Plant response rating, Ducksalad (0 to 100 scale, 0 is no effect, 100 is complete control) [2]: 40 | Plant response rating, Foxtail, Green [3, 24]: 95 | Plant response rating, Foxtail, Green [3, 15]: 95 | Plant response rating, Foxtail, Green [3, 16]: 95 | Plant response rating, Foxtail, Green [3, 17]: 95 | Plant response rating, Cupgrass, Woolly [4, 24]: 50 | Plant response rating, Cupgrass, Woolly [4, 15]: 55 | Plant response rating, Cupgrass, Woolly [4, 16]: 95 | Plant response rating, Cupgrass, Woolly [4, 17]: 98 | Plant response rating: Blackgrass [5, 10]: 25 | Plant response rating: Blackgrass [5, 11]: 30 | Plant response rating: Blackgrass [5, 12]: 60 | Plant response rating, Blackgrass [5, 18]: 15 | Plant response rating, Blackgrass [5, 19]: 0 | Plant response rating, Blackgrass [5, 20]: 0 | Plant response rating, Blackgrass [5, 21]: 30 | Plant response rating, Blackgrass [5, 22]: 40 | Plant response rating: Field Poppy [6, 10]: 90 | Plant response rating: Field Poppy [6, 11]: 100 | Plant response rating: Field Poppy [6, 12]: 100 | Plant response rating, Field Poppy [6, 18]: 90 | Plant response rating, Field Poppy [6, 19]: 55 | Plant response rating, Field Poppy [6, 20]: 75 | Plant response rating, Field Poppy [6, 21]: 95 | Plant response rating, Field Poppy [6, 22]: 100 | Plant response rating: Deadnettle [7, 10]: 95 | Plant response rating: Deadnettle [7, 11]: 90 | Plant response rating: Deadnettle [7, 12]: 100 | Plant response rating, Deadnettle [7, 18]: 65 | Plant response rating, Deadnettle [7, 19]: 5 | Plant response rating, Deadnettle [7, 20]: 10 | Plant response rating, Deadnettle [7, 21]: 100 | Plant response rating, Deadnettle [7, 22]: 100 | Plant response rating: Russian Thistle [8, 10]: 85 | Plant response rating: Russian Thistle [8, 11]: 80 | Plant response rating: Russian Thistle [8, 12]: 80 | Plant response rating, Russian Thistle [8, 18]: 45 | Plant response rating: Barley, Spring [9, 10]: 15 | Plant response rating: Barley, Spring [9, 11]: 20 | Plant response rating: Barley, Spring [9, 12]: 25 | Plant response rating, Barley, Spring [9, 18]: 15 | Plant response rating, Barley, Spring [9, 19]: 0 | Plant response rating, Barley, Spring [9, 20]: 0 | Plant response rating, Barley, Spring [9, 21]: 5 | Plant response rating, Barley, Spring [9, 22]: 10
